Source: PubChem BioAssay AID180 (DTP/NCI, 2004)
“And” between values parts separate entries of the source, which are not always exact repeats. Equal entries are not always repeated.

System: BDF1 mice, Adenocarcinoma 755 s.c., tumor weight T/C
Test: NCI In Vivo Anticancer Drug Screen. Data for tumor model Adenocarcinoma 755 (subcutaneous) in B6D2F1 (BDF1) mice
Details: endpoint: mean tumor weight, higher = larger tumour
Summary of the method: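 Tumor-bearing mice receive test compound while controls get vehicle alone. Antitumor effect is scored from survival or tumor dimensions as a T/C quotient.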

OCC1OC(n2cnc3c(=S)nc[nH]c32)C(O)C1O (stereo not drawn) was tested, and the T/C (dose: 0.28 mg/kg/injection, schedule: Q01DX011 (ip), vehicle: carboxymethylcellulose (CMC)) was 47 % of control, the T/C (dose: 0.5 mg/kg/injection, schedule: Q01DX011 (ip), vehicle: saline) was 31 % of control and the T/C (dose: 0.56 mg/kg/injection, schedule: Q01DX011 (ip), vehicle: carboxymethylcellulose (CMC)) was 100 % of control. The T/C (dose: 1.0 mg/kg/injection, schedule: Q01DX011 (oral), vehicle: methylcellulose (MC)) was 59 % of control, the T/C (dose: 1.0 mg/kg/injection, schedule: Q01DX011 (oral), vehicle: saline) was 63 % of control and the T/C (dose: 1.12 mg/kg/injection, schedule: Q01DX011 (ip), vehicle: carboxymethylcellulose (CMC)) was 30 % of control. The T/C (dose: 1.25 mg/kg/injection, schedule: Q01DX011 (ip), vehicle: saline) was 26 % of control, the T/C (dose: 1.5 mg/kg/injection, schedule: Q01DX011 (ip), vehicle: carboxymethylcellulose (CMC)) was 65 % of control and the T/C (dose: 2.0 mg/kg/injection, schedule: Q01DX011 (oral), vehicle: methylcellulose (MC)) was 9 % of control. The T/C (dose: 2.0 mg/kg/injection, schedule: Q01DX011 (oral), vehicle: saline) was 47 % of control, the T/C (dose: 2.23 mg/kg/injection, schedule: Q01DX011 (ip), vehicle: carboxymethylcellulose (CMC)) was 4 % of control and 7 % of control and the T/C (dose: 2.5 mg/kg/injection, schedule: Q01DX011 (ip), vehicle: carboxymethylcellulose (CMC)) was 34 % of control. For the same compound, the T/C (dose: 3.0 mg/kg/injection, schedule: Q01DX011 (oral), vehicle: methylcellulose (MC)) was 14 % of control, the T/C (dose: 3.75 mg/kg/injection, schedule: Q01DX011 (ip), vehicle: carboxymethylcellulose (CMC)) was 6 % of control and 12 % of control and the T/C (dose: 4.0 mg/kg/injection, schedule: Q01DX011 (oral), vehicle: methylcellulose (MC)) was 4 % of control. The T/C (dose: 4.0 mg/kg/injection, schedule: Q01DX011 (oral), vehicle: saline) was 9 % of control, the T/C (dose: 4.47 mg/kg/injection, schedule: Q01DX011 (ip), vehicle: carboxymethylcellulose (CMC)) was 10 % of control and the T/C (dose: 5.0 mg/kg/injection, schedule: Q01DX011 (oral), vehicle: methylcellulose (MC)) was 3 % of control. The T/C (dose: 7.5 mg/kg/injection, schedule: Q01DX011 (ip), vehicle: carboxymethylcellulose (CMC)) was 5 % of control and 8 % of control, the T/C (dose: 8.0 mg/kg/injection, schedule: Q01DX011 (oral), vehicle: saline) was 7 % of control and the T/C (dose: 8.94 mg/kg/injection, schedule: Q01DX011 (ip), vehicle: carboxymethylcellulose (CMC)) was 5 % of control. For the same compound, the T/C (dose: 10.0 mg/kg/injection, schedule: Q01DX006 (iv), vehicle: saline) was 2 % of control, the T/C (dose: 10.0 mg/kg/injection, schedule: Q01DX011 (ip), vehicle: saline) was 4 % of control and the T/C (dose: 10.0 mg/kg/injection, schedule: Q01DX011 (oral), vehicle: methylcellulose (MC)) was 2 % of control. The T/C (dose: 10.0 mg/kg/injection, schedule: Q01DX011 (sc), vehicle: saline) was 4 % of control, the T/C (dose: 10.0 mg/kg/injection, schedule: Q03DX004 (im), vehicle: saline) was 3 % of control and the T/C (dose: 15.0 mg/kg/injection, schedule: Q01DX011 (ip), vehicle: carboxymethylcellulose (CMC)) was 2 % of control and 7 % of control. The T/C (dose: 17.87 mg/kg/injection, schedule: Q01DX011 (ip), vehicle: carboxymethylcellulose (CMC)) was 6 % of control, the T/C (dose: 18.75 mg/kg/injection, schedule: Q01DX011 (ip), vehicle: carboxymethylcellulose (CMC)) was 2 % of control and the T/C (dose: 20.0 mg/kg/injection, schedule: Q01DX006 (iv), vehicle: saline) was 2 % of control. For the same compound, the T/C (dose: 20.0 mg/kg/injection, schedule: Q01DX011 (ip), vehicle: saline) was 4 % of control, the T/C (dose: 20.0 mg/kg/injection, schedule: Q01DX011 (sc), vehicle: saline) was 2 % of control and the T/C (dose: 20.0 mg/kg/injection, schedule: Q03DX004 (im), vehicle: saline) was 2 % of control. The T/C (dose: 25.0 mg/kg/injection, schedule: Q01DX011 (ip), vehicle: carboxymethylcellulose (CMC)) was 3 % of control, the T/C (dose: 35.75 mg/kg/injection, schedule: Q01DX011 (ip), vehicle: carboxymethylcellulose (CMC)) was 5 % of control and the T/C (dose: 37.5 mg/kg/injection, schedule: Q01DX011 (ip), vehicle: carboxymethylcellulose (CMC)) was 2 % of control and 5 % of control. For the same compound, the T/C (dose: 40.0 mg/kg/injection, schedule: Q01DX006 (iv), vehicle: saline) was 3 % of control, the T/C (dose: 40.0 mg/kg/injection, schedule: Q01DX010 (oral), vehicle: saline) was 3 % of control and the T/C (dose: 40.0 mg/kg/injection, schedule: Q01DX011 (ip), vehicle: saline) was 3 % of control. For the same compound, the T/C (dose: 40.0 mg/kg/injection, schedule: Q01DX011 (sc), vehicle: saline) was 4 % of control, the T/C (dose: 40.0 mg/kg/injection, schedule: Q03DX004 (im), vehicle: saline) was 1 % of control and the T/C (dose: 57.0 mg/kg/injection, schedule: Q01DX011 (ip), vehicle: carboxymethylcellulose (CMC)) was 9 % of control. The T/C (dose: 71.5 mg/kg/injection, schedule: Q01DX011 (ip), vehicle: carboxymethylcellulose (CMC)) was 5 % of control, the T/C (dose: 73.0 mg/kg/injection, schedule: Q01DX011 (ip), vehicle: carboxymethylcellulose (CMC)) was 4 % of control and the T/C (dose: 75.0 mg/kg/injection, schedule: Q01DX011 (ip), vehicle: carboxymethylcellulose (CMC)) was 4 % of control. The T/C (dose: 80.0 mg/kg/injection, schedule: Q01DX006 (iv), vehicle: saline) was 3 % of control, the T/C (dose: 80.0 mg/kg/injection, schedule: Q01DX011 (ip), vehicle: alkali diluted with saline) was 4 % of control and the T/C (dose: 80.0 mg/kg/injection, schedule: Q01DX011 (ip), vehicle: saline) was 5 % of control. The T/C (dose: 80.0 mg/kg/injection, schedule: Q01DX011 (sc), vehicle: saline) was 4 % of control, the T/C (dose: 80.0 mg/kg/injection, schedule: Q03DX004 (im), vehicle: saline) was 2 % of control and the T/C (dose: 115.0 mg/kg/injection, schedule: Q01DX011 (ip), vehicle: carboxymethylcellulose (CMC)) was 3 % of control. For the same compound, the T/C (dose: 120.0 mg/kg/injection, schedule: Q01DX011 (ip), vehicle: alkali diluted with saline) was 2 % of control and 3 % of control, the T/C (dose: 143.0 mg/kg/injection, schedule: Q01DX011 (ip), vehicle: carboxymethylcellulose (CMC)) was 5 % of control and the T/C (dose: 146.0 mg/kg/injection, schedule: Q01DX011 (ip), vehicle: carboxymethylcellulose (CMC)) was 6 % of control. The T/C (dose: 150.0 mg/kg/injection, schedule: Q01DX011 (ip), vehicle: carboxymethylcellulose (CMC)) was 4 % of control, the T/C (dose: 160.0 mg/kg/injection, schedule: Q01DX011 (ip), vehicle: alkali diluted with saline) was 3 % of control and the T/C (dose: 200.0 mg/kg/injection, schedule: Q01DX011 (ip), vehicle: carboxymethylcellulose (CMC)) was 6 % of control. The T/C (dose: 225.0 mg/kg/injection, schedule: Q01DX011 (ip), vehicle: carboxymethylcellulose (CMC)) was 6 % of control, the T/C (dose: 231.0 mg/kg/injection, schedule: Q01DX011 (ip), vehicle: carboxymethylcellulose (CMC)) was 5 % of control and the T/C (dose: 250.0 mg/kg/injection, schedule: Q01DX011 (ip), vehicle: carboxymethylcellulose (CMC)) was 3 % of control. The T/C (dose: 300.0 mg/kg/injection, schedule: Q01DX011 (ip), vehicle: carboxymethylcellulose (CMC)) was 7 % of control, the T/C (dose: 320.0 mg/kg/injection, schedule: Q01DX001 (ip), vehicle: alkali diluted with saline) was 5 % of control and 7 % of control and the T/C (dose: 320.0 mg/kg/injection, schedule: Q01DX001 (oral), vehicle: alkali diluted with saline) was 18 % of control. For the same compound, the T/C (dose: 320.0 mg/kg/injection, schedule: Q03DX004 (ip), vehicle: alkali diluted with saline) was 1 % of control and 5 % of control, the T/C (dose: 320.0 mg/kg/injection, schedule: Q03DX004 (oral), vehicle: alkali diluted with saline) was 2 % of control and the T/C (dose: 320.0 mg/kg/injection, schedule: Q07DX002 (ip), vehicle: alkali diluted with saline) was 3 % of control and 7 % of control. For the same compound, the T/C (dose: 320.0 mg/kg/injection, schedule: Q07DX002 (oral), vehicle: alkali diluted with saline) was 4 % of control, the T/C (dose: 480.0 mg/kg/injection, schedule: Q01DX001 (ip), vehicle: alkali diluted with saline) was 4 % of control and 9 % of control and the T/C (dose: 480.0 mg/kg/injection, schedule: Q01DX001 (oral), vehicle: alkali diluted with saline) was 8 % of control. For the same compound, the T/C (dose: 480.0 mg/kg/injection, schedule: Q03DX004 (ip), vehicle: alkali diluted with saline) was 2 % of control and 3 % of control, the T/C (dose: 480.0 mg/kg/injection, schedule: Q07DX002 (ip), vehicle: alkali diluted with saline) was 6 % of control and the T/C (dose: 480.0 mg/kg/injection, schedule: Q07DX002 (oral), vehicle: alkali diluted with saline) was 7 % of control. The T/C (dose: 640.0 mg/kg/injection, schedule: Q01DX001 (ip), vehicle: alkali diluted with saline) was 5 % of control, the T/C (dose: 640.0 mg/kg/injection, schedule: Q01DX001 (oral), vehicle: alkali diluted with saline) was 9 % of control and the T/C (dose: 640.0 mg/kg/injection, schedule: Q07DX002 (ip), vehicle: alkali diluted with saline) was 4 % of control. The T/C (dose: 640.0 mg/kg/injection, schedule: Q07DX002 (oral), vehicle: alkali diluted with saline) was 3 % of control, the T/C (dose: 960.0 mg/kg/injection, schedule: Q01DX001 (oral), vehicle: alkali diluted with saline) was 9 % of control and the T/C (dose: 960.0 mg/kg/injection, schedule: Q07DX002 (oral), vehicle: alkali diluted with saline) was 6 % of control.
